# Results reported in patent publication US10570412B2, “Method of increasing resistance against soybean rust in transgenic plants by increasing the scopoletin content” (BASF PLANT SCIENCE COMPANY GMBH, priority 2015, dated 2020).
# “Also recorded” adds a separate entry of the source.
# Columns and labels:
# [1] = test system: Phakopsora pachyrhizi; test: In vitro germination test of Phakopsora pachyrhizi spores on glass slides; type: cell-based; conditions: 6 h
# [2] = test system: Fusarium graminearum; type: cell-based; conditions: 1 mM scopoletin in PDA, compared with PDA+methanol
# [3] = test system: Phakopsora pachyrhizi; test: In vivo spore germination test on Arabidopsis leaves; set-up: species or system Phakopsora pachyrhizi on Arabidopsis thaliana; conditions: 1 mM scopoletin, assessed 48 h after infection
# [4] = test system: Phakopsora pachyrhizi; test: Soybean rust diseased leaf area on scopoletin-treated soybean plants; type: in vivo, Phakopsora pachyrhizi on soybean
# [5] = test system: Arabidopsis; test: Phytotoxic effect of scopoletin in Arabidopsis; type: in vivo; conditions: Arabidopsis plants treated with 1 mM scopoletin
# Experimental: For pre-treatment experiments Arabidopsis plants were sprayed with—1 mM scopoletin (solved in H2O, 0.01% Tween-20); incubated for 6 h at short day conditions and subsequently inoculated with 1 mg/ml P. pachyrhizi uredospores. For co-treatment experiments spores of Phakopsora pachyrhizi were solved in 0.01% Tween-20 supplemented with 1 mM scopoletin. Following inoculation plants were covered with moistened plastic domes to ensure high humidity and incubated at short day conditions (see above). 24 h later plastic domes were removed and plants incubated at the same conditions for another 24 h. Leaves were harvested 2 dpi and destained on tissue soaked with a saturated (2.5 g/ml) chloralhydrate solution. Germination and penetration on destained leaves was determined by quantitative microscopic analysis.
# [6] = test system: soybean; test: Phytotoxic effect of scopoletin in soybean; conditions: soybean plants treated with scopoletin
compound,measurement,setting,value
COc1cc2ccc(=O)oc2cc1O [scopoletin],germination and appressorium formation of Phakopsora pachyrhizi spores,"[1]; 10 μM, 100 μM, 500 μM and 1 mM scopoletin in water, glass slides, dose dependent",decreases the germination and appressoria formation in a dose dependent manner; also recorded: strongly inhibited
same,spore germination in-vitro,[1]; 1 mM scopoletin,completely abolishes spore germination
same,reduction of the Fusarium graminearum growth rate per day,[2],61%
same,germination of Phakopsora pachyrhizi spores on Arabidopsis leaves,[3]; co-application with inoculation,drastically reduced formation of germinated spores
same,germination of Phakopsora pachyrhizi spores on Arabidopsis leaves,"[3]; co-application with inoculation, listed as Scopoletin",strongly inhibited
same,germination of Phakopsora pachyrhizi spores on Arabidopsis leaves,[3]; pre-treatment 6 h before inoculation,drastically reduced formation of germinated spores
same,germination of Phakopsora pachyrhizi spores on Arabidopsis leaves,"[3]; pre-treatment 6 h before inoculation, listed as Scopoletin",strongly inhibited
same,diseased leaf area caused by Phakopsora pachyrhizi infection,"[4]; soy plants, 1 mM scopoletin, co-application, primary, first and second trifoliate leaves, 12 dpi",drastically reduced formation of infected leaf area; also recorded: strongly reduced
same,diseased leaf area caused by Phakopsora pachyrhizi infection,"[4]; soy plants, 1 mM scopoletin, pre-treatment 6 h before inoculation, primary, first and second trifoliate leaves, 12 dpi",drastically reduced formation of infected leaf area; also recorded: strongly reduced
same,diseased leaf area caused by Phakopsora pachyrhizi infection,"[4]; soybean leaves, co-application of 10 μM, 100 μM or 1 mM scopoletin, dose dependent",strongly reduced in a dose dependent manner
same,phytotoxic effect leading to pleiotropic effects,[5],never observed any phytotoxic effect
same,phytotoxic effect leading to pleiotropic effects,[6],never observed
